Experiments:
[1] = test system: PC 12 cells; test: Cytotoxicity under light irradiation, WST-8 cell viability, Test Example 2; format: cell-based, rat; details: LED 660 nm, 10 mW, 5 minutes, then 48 hours
Protocol: A culture medium for rat adrenal medulla-derived pheochromocytoma PC 12 cells (purchased from RIKEN, Japan) seeded on a poly-D-lysine-coated 96-well plate was replaced with 75 μL of a Dulbecco's modified Eagle's medium containing 0.1% horse serum, and the culture was incubated in a 5% CO2 atmosphere at 37° C. for 1 day, and 25 μL of a phosphate buffer saline (pH 7.4) containing a inventive compound was then added thereto. Thereafter, the mixed solution was incubated under LED irradiation (wavelength: 660 nm, 10 mW) (without light irradiation for dark) at 37° C. for 5 minutes. Further, the cell culture plate containing the reaction solution was incubated in a 5% CO2 atmosphere at 37° C. for 48 hours. Finally, the Cell Count Reagent SF (10 μL: purchased from NACALAI TESQUE, INC.) containing WST-8 was added, and the culture was incubated in a 5% CO2 atmosphere at 37° C. for 3 hours, and thereafter the cell viability was determined from the absorbance at 450 nm (reference wavelength: 655 nm).

[2] = test system: PC 12 cells; test: Action on cells through selective oxygenation of Aβ1-42, WST-8 cell viability, Test Example 3; format: cell-based, rat; details: Aβ 10 μM, compound E 1 or 3 μM, 48 hours
Protocol: A phosphate buffer saline (pH 7.4) containing Aβ (40 μM) was incubated at 37° C. for 3 hours. Subsequently, the compound E was added thereto (4 or 12 μM). A culture medium for rat adrenal medulla-derived pheochromocytoma PC 12 cells (purchased from RIKEN, Japan) seeded on a poly-D-lysine-coated 96-well plate was replaced with 75 μL of a Dulbecco's modified Eagle's medium containing 0.1% horse serum, and the culture was incubated in a 5% CO2 atmosphere at 37° C. for 1 day, and 25 μL of the phosphate buffer saline (pH 7.4) containing Aβ and the compound E was then added thereto (final volume: 100 μL, final concentration of Aβ: 10 μM, final concentration of compound E: 1 or 3 μM). […] Finally, the Cell Count Reagent SF (10 μL: purchased from NACALAI TESQUE, INC.) containing WST-8 was added, and the culture was incubated in a 5% CO2 atmosphere at 37° C. for 3 hours, and thereafter the cell viability was determined from the absorbance at 450 nm (reference wavelength: 655 nm).
From the results shown in FIG. 4, an attempt was made to examine whether the toxicity of Aβ1-42 can be reduced through oxygenation of the Aβ1-42 in the presence of cells. […] The cell viability was determined through measurement of the absorption by WST-8 at 450 nm by using a plate reader.

[3] = Conversion of furfuryl alcohol under different glycerol concentrations, Test Example 8; details: compound 2 μM, furfuryl alcohol 2 mM, glycerol-methanol 0, 10, 30, or 50% glycerol, 780 nm, room temperature
Protocol: To a glycerol-methanol mixed solvent (glycerol: 0, 10, 30, or 50%), furfuryl alcohol or N-benzoyl-Met (2 mM in each case) and the compound E (2 μM) were added, and the mixture was subjected to light irradiation (wavelength: 780 nm) at room temperature, and the concentration of furfuryl alcohol or N-benzoyl-Met was quantified by using a UV absorptiometer with LC/MS 10 minutes, 20 minutes, and 30 minutes after the initiation of light irradiation.

[4] = Stability of catalyst in neutral phosphate buffer without or under light irradiation (HPLC), Test Example 5; format: physicochemical; details: under light irradiation (660 nm)
Protocol: A neutral phosphate buffer containing a catalyst was incubated without light irradiation or under light irradiation (660 nm), and thereafter ethanol containing benzyl alcohol (as an internal standard) was added thereto, and analysis was performed by using HPLC.

[5] = target: T1, angiotensin-IV (AT4) (Homo sapiens, UniProt P01019); test: Aβ selectivity of oxygenation, Test Example 9; format: biochemical; details: peptide 20 μM, catalyst 5 μM, 780 nm (7 mW), 37° C., 30 minutes
T1 construct: angiotensin-IV (AT4), Met-enkephalin (ME), or somatostatin (Sst) (20 μM in each case)
Protocol: (§1) Aβ1-42 isopeptide (concentration: 250 μM in 0.1% aqueous solution of trifluoroacetic acid), angiotensin IV (200 μM aqueous solution), Met-enkephalin (200 μM aqueous solution), and somatostatin (200 μM aqueous solution) were added to a phosphate buffer or phosphate buffer saline (pH 7.4) (with 0.1 M aqueous solution of sodium hydroxide, as necessary) so that a final peptide concentration of 20 μM or 40 μM (pH 7.4) was reached. Before being subjected to oxygenation reaction, the Aβ1-42 solution was incubated at 37° C. for 1 to 3 hours. The phosphate buffer containing 40 μM of Aβ was diluted with a Dulbecco's modified Eagle's medium (DMEM, Life Technologies) containing 0.1% horse serum and buffered with 25 mM of 4-(2-hydroxyethyl)-1-piperazineethanesulfonic acid (HEPES).
(§2) Solutions of the compounds with a final concentration of 2 μM were used for evaluation of oxygenation of Aβ1-42. Solutions of the compounds with a final concentration of 5 μM were used for evaluation of peptide selectivity. […] A control group without light irradiation was additionally prepared. Reaction was analyzed through monitor analysis with a MALDI-TOF MS. Degree of oxygenation was determined as a ratio: degree of oxygenation (%)=(total of MS intensities for n[O] adducts)/(MS intensity for native+total of MS intensities for n[O] adducts)×100. Aliquots of each reaction solution were desalted with a ZipTip U-C18 (Merck Millipore), as necessary, before mass spectrometry.

[6] = target: T2, Aβ peptide (Homo sapiens, UniProt P05067); test: Aβ selectivity of oxygenation, Test Example 9; format: biochemical; details: peptide 20 μM, catalyst 5 μM (25 mol %), 780 nm (7 mW), 37° C., 30 minutes
T2 construct: Aβ1-42 isopeptide (concentration: 250 μM in 0.1% aqueous solution of trifluoroacetic acid)
Protocol: as §1, §2

[7] = target: T3, Met-enkephalin (ME) (Homo sapiens, UniProt P01210); test: Aβ selectivity of oxygenation, Test Example 9; format: biochemical; details: peptide 20 μM, catalyst 5 μM, 780 nm (7 mW), 37° C., 30 minutes
T3 construct: angiotensin-IV (AT4), Met-enkephalin (ME), or somatostatin (Sst) (20 μM in each case)
Protocol: as §1, §2

[8] = target: T4, Aβ1-42 (Homo sapiens, UniProt P05067); test: In vitro oxygenation experiment using Aβ1-42 as a substrate (MALDI-TOF MS), Test Example 1; format: biochemical; details: test compound 1 μM, Aβ1-42 10 μM, LED irradiation at both 660 nm and 730 nm, 37° C.
T4 construct: phosphate buffer (pH 7.4)/cell culture solution (containing 0.1% horse serum) (1:3) containing Aβ1-42 (10 μM)
Protocol: An in vitro oxygenation experiment using Aβ1-42 as a substrate was conducted to confirm that each of the inventive compounds actually have Aβ oxygenation activity. A test compound (1 μM in each case) was added to phosphate buffer (pH 7.4)/cell culture solution (containing 0.1% horse serum) (1:3) containing Aβ1-42 (10 μM), and incubated under LED irradiation (wavelength: 660 nm, 730 nm) at 37° C., and then the reaction was tracked by using a mass spectrometer (MALDI-TOF MS). The native Aβ1-42 and the Na^+ adduct were mainly observed before light irradiation. After light irradiation, an ion peak indicating the presence of the oxygenated form was observed over time (FIG. 1, FIG. 2).

[9] = test system: Arctic Aβ1-42; test: Oxygenation reaction in mouse brain extract, Test Example 6; format: biochemical; details: mouse brain lysate, light 780 nm
Protocol: The brain excised from an eight-month-old App knock-in (App^NL-C-F/NL-C-F) mouse (Alzheimer's model mouse) was separated into the cerebral cortex, the hippocampus, and the residual brain tissues. The cerebral cortex and the hippocampus were homogenized together in a phosphate buffer saline, and the suspension was stored at −80° C. […] At an arbitrary point of time, an arbitrary aliquot of the reaction mixture was diluted with formic acid to a final concentration of 70%, concentrated, and redissolved in a 6 M aqueous solution of urea.

T4 sequence (P05067 672-713): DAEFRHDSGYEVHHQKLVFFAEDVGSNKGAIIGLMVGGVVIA
T2 sequence (P05067 672-713): as above

SMILES: O=C(O)CCCCCN1CCCc2cc(/C=C/C3=[O+][B-](F)(C(F)(F)C(F)(F)F)OC(/C=C/c4cc5c6c(c4)CCCN6CCC5)=C3Br)ccc21 (stereo not drawn) [Compound E]
- toxicity under light irradiation (ranking) [1]: the lowest
- cell viability with Aβ1-42 and compound E ([2]; under LED irradiation 660 nm, 10 mW, 5 minutes): the cell viability was significantly improved
- cell viability with Aβ1-42 and compound E ([2]; without light irradiation): significant cell death
- oxygenation reaction rate of furfuryl alcohol [3]: higher as the viscosity of the solvent was higher
- stability of catalyst (ranking) [4]: stability was higher
- oxygenation rate of angiotensin-IV [5]: lower than 5%
- oxygenation of pre-aggregated Aβ peptide [6]: 44%
- oxygenation rate of Met-enkephalin [7]: lower than 5%
- oxygenation of Aβ1-42 under light irradiation [8]: oxygenation of the Aβ proceeded
- decrease of peak intensity (conversion) of Arctic Aβ1-42 ([9]; 30 minutes): 43%
- decrease of peak intensity (conversion) of Arctic Aβ1-42 ([9]; 60 minutes): 60%
- decrease of peak intensity (conversion) of Arctic Aβ1-42 ([9]; 150 minutes): 83%
